Biological target: T1, Tyrosinase (Homo sapiens, UniProt P14679)
T1 sequence (P14679 whole entry): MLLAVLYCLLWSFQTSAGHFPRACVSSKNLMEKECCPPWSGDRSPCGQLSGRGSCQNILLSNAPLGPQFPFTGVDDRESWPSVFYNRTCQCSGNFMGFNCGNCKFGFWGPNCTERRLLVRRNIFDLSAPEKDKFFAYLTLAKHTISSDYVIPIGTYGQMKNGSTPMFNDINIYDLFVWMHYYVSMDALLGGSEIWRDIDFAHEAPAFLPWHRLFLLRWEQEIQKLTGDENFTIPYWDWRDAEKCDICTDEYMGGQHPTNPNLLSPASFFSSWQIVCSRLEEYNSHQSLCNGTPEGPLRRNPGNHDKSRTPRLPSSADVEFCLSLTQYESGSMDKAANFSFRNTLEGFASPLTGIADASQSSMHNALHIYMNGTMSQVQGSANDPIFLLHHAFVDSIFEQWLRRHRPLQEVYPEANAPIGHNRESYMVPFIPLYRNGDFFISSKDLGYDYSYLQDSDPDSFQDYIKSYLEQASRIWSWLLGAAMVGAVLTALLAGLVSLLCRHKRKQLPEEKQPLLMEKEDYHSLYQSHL
Assay: Compound was evaluated for inhibition of tyrosinase enzyme; Not active; call rule not given here
Set-up: species or system mushroom

IC50: Not Active
Compound: N[C@@H](Cc1ccccc1)C(=O)O [PHENYLALANINE]

— ChEMBL document CHEMBL1129764, “Synthesis of N-kojic-amino acid and N-kojic-amino acid-kojiate and their tyrosinase inhibitory activity” (Bioorg Med Chem Lett, 1996)
